From US20260374766A1, “METHODS FOR TREATING CANCER” (Antares Therapeutics, Inc., priority 2022, published 2026)
pIC50, pKd: −log10 of the molar value. Read-outs that look alike come from different tables or passages of the source.

How the values were obtained:
[1] = biological target: T1, p53 Y220C mutant protein (amino acid residues 94-293) (Homo sapiens, UniProt P04637, Y220C); assay: Surface Plasmon Resonance (SPR) assay, Kd_kinetic; type: binding; conditions: SPR, p53 Y220C, read-out: SPR P53 Y220C KD kinetic
T1 construct: p53 Y220C mutant protein (amino acid residues 94-293)
Method: Surface Plasmon Resonance (SPR) Assay Protocol
SPR experiments were performed on a Biacore 8K instrument. […] The running buffer contained 50 mM Tris, pH 7.5, 100 mM NaCl, 1 mM DTT, 0.01% Brij35, 0.05% Tween-20 and 1% DMSO. The assay temperature was maintained at 16 or 20 °C and data were fit into the 1:1 binding model using the Biacore Insight Evaluation software.

NUGC3 p53 Y220C = assay: Cell Proliferation Assay (CellTiter-Glo, CTG), NUGC3 p53 Y220C; type: cell-based; conditions: Homo sapiens, NUGC-3, 120 h, CellTiter-Glo, 5 days
Method: (§1) Inducible p53 Y220C and R273H constructs (Tet-One inducible expression system; Takara) were stably expressed in NClH1299 cells by lentiviral transduction. NUGC3, A549, BxPC3, T3M4, HuH7, HCC2935, MFE296, NClH1299, NClH1299-inducible p53 Y220C, and NClH1299-inducible p53 R273H cell lines were used for cell proliferation assay. 250-500 cells were seeded in each well of 384 plate and then compounds were dispensed into each well using Echo or Tecan. After 5 days of incubation, equal volume of CellTiter-Glo reagent (G7570; Promega) was added into each well and the plate was incubated at room temperature for 10 minutes with shaking. The luminescent signal was measured by PheraStar microplate reader and IC50 was calculated.

H1299 p53 Y220C = assay: Cell Proliferation Assay (CellTiter-Glo, CTG), H1299 p53 Y220C (NClH1299-inducible p53 Y220C); type: cell-based; conditions: Homo sapiens, NCI-H1299, 120 h, CellTiter-Glo, 5 days
Method: as §1

H1299 p53 R273H = assay: Cell Proliferation Assay (CellTiter-Glo, CTG), H1299 p53 R273H (NClH1299-inducible p53 R273H); type: cell-based; conditions: Homo sapiens, NCI-H1299, 120 h, CellTiter-Glo, 5 days
Method: as §1

p53 Y220C = p53 Y220C (Homo sapiens, UniProt P04637, Y220C); assay: Luciferase Reporter Assay (Luc), p53 response element, NClH1299 cells with inducible p53 Y220C; type: cell-based; conditions: luciferase reporter, NClH1299 inducible p53 Y220C, 6 hour; for AC50: read-out: Luc P53 Y220C AC50
Method: Luciferase Reporter Assay Protocol
The cells were then used for p53 reporter assay. 5,000 cells were seeded in each well of 384 plate and cultured in 0.5 ug/mL doxycycline (D3072; Sigma) containing medium for 24 hours before compound treatment. After 6 hour of compound treatment, equal volume of One-Glo reagent (E6110; Promega) was added to each well and the plate was incubated for 5 minutes with shaking at room temperature. The luciferase activity was immediately measured with PheraStar microplate reader.

[2] = 10 uM tool compound as positive control
[3] = NClH1299-inducible p53 Y220C cells
[4] = NClH1299-inducible p53 R273H cells

T1 sequence (P04637 94-293, stated change not applied): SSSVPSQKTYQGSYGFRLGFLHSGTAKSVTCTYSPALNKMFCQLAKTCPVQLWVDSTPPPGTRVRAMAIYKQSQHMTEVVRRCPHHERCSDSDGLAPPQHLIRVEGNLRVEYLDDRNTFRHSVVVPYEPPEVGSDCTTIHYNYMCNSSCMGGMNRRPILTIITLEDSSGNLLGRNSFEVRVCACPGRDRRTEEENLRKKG

Row | Compound | pKd ([1]; kinetic KD) | pIC50 (NUGC3 p53 Y220C; NUGC3 p53 Y220C) | pIC50 (H1299 p53 Y220C; H1299 p53 Y220C) | pIC50 (H1299 p53 R273H; H1299 p53 R273H) | Emax (p53 Y220C; [2]) | AC50 (p53 Y220C) | pKd [1] | pIC50 (NUGC3 p53 Y220C; NUGC3 cells) | pIC50 (H1299 p53 Y220C; [3]) | pIC50 (H1299 p53 R273H; [4]) | AC50 (p53 Y220C; AC50) | Emax (p53 Y220C; Emax)
1 | CNS(=O)(=O)c1ccc(OC)c(NCC#Cc2cc3c(N[C@@H]4CCN(C)C[C@@H]4F)cccn3c2SC(F)(F)F)c1 [Example 132, 3-{[3-(8-{[(3S,4R)-3-fluoro-1-methylpiperidin-4-yl]amino}-3-[(trifluoromethyl)sulfanyl]indolizin-2-yl)prop-2-yn-1-yl]amino}-4-methoxy-N-methylbenzenesulfonamide] | > 8.00 | > 6.12 | > 6.12 | 5.10 to 5.30 | 80 to 90% | < 0.75 µM |  |  |  |  |  | 
2 | CNC(=O)c1ccc(N[C@H](C)C#Cc2nc3c(N[C@@H]4CCN(C)C[C@@H]4F)cccn3c2SC(F)(F)F)c(OC)c1 [Example 133] | 7.00 to 8.00 | < 5.52 | < 5.52 | 5.10 to 5.30 | > 90% | > 3 µM |  |  |  |  |  | 
3 | CNC(=O)c1ccc(N[C@@H](C)C#Cc2nc3c(N[C@@H]4CCN(C)C[C@@H]4F)cccn3c2SC(F)(F)F)c(OC)c1 [Example 134] | 7.00 to 8.00 | < 5.52 | < 5.52 | 5.10 to 5.30 | 70 to 80% | > 3 µM |  |  |  |  |  | 
4 | CNC(=O)c1ccc(NCC#Cc2nc3c(N[C@@H]4C[C@H]5COC[C@@H]([C@@H]4F)N5C)cccn3c2SC(F)(F)F)c(OC)c1 [Example 137] | 7.00 to 8.00 | < 5.52 | < 5.52 | ≤ 5.00 | < 70% | > 3 µM |  |  |  |  |  | 
5 | CNC(=O)c1c[nH]nc1NCC#Cc1nc2c(N[C@@H]3CCN(C)C[C@@H]3F)cccn2c1SC(F)(F)F [Example 198] | > 8.00 | > 6.12 | > 6.12 | ≤ 5.00 | 80 to 90% | < 0.75 µM |  |  |  |  |  | 
6 | CNC(=O)c1ccc(NCC#Cc2nn3c(N[C@@H]4CCN(C)C[C@@H]4F)ccnc3c2SC(F)(F)F)c(OC)c1 [Example 205] | 7.00 to 8.00 | < 5.52 | < 5.52 | ≤ 5.00 | < 70% | > 3 µM |  |  |  |  |  | 
7 | CNC(=O)c1ccc(OC)c(NCC#Cc2cc3c(N[C@@H]4CN(C)C[C@@H]4F)nccn3c2SC(F)(F)F)c1 [Example 208] | > 8.00 | > 6.12 | > 6.12 | ≤ 5.00 | > 90% | < 0.75 µM |  |  |  |  |  | 
8 | CNC(=O)c1ccc(OC)c(NCC#Cc2cc3c(N[C@@H]4CNC[C@@H]4F)nccn3c2SC(F)(F)F)c1 [Example 209] | > 8.00 | > 6.12 | 5.82 to 6.12 | ≤ 5.00 | > 90% | < 0.75 µM |  |  |  |  |  | 
9 | CNC(=O)c1ccc(OC)c(NCC#Cc2cc3c(N[C@@H]4CNC[C@@H]4F)nccn3c2SC(F)(F)F)n1 [Example 210] | > 8.00 | 5.82 to 6.12 | 5.82 to 6.12 | ≤ 5.00 | 80 to 90% | 0.75 to 1.5 µM |  |  |  |  |  | 
10 | CNC(=O)c1ccc(OC)c(NCC#Cc2cc3c(N[C@@H]4CN(C)C[C@@H]4F)nccn3c2SC(F)(F)F)n1 [Example 211] | > 8.00 | 5.82 to 6.12 | > 6.12 | ≤ 5.00 | 80 to 90% | < 0.75 µM |  |  |  |  |  | 
11 | CNC(=O)c1ccc(NCC#Cc2nn3c(N[C@@H]4CCN(C)C[C@@H]4F)nccc3c2SC(F)(F)F)c(OC)c1 [Example 214, 4-{[3-(7-{[(3S,4R)-3-fluoro-1-methylpiperidin-4-yl]amino}-3-[(trifluoromethyl)sulfanyl]pyrazolo[1,5-c]pyrimidin-2-yl)prop-2-yn-1-yl]amino}-3-methoxy-N-methylbenzamide] | > 8.00 | > 6.12 | > 6.12 | ≤ 5.00 | > 90% | < 0.75 µM |  |  |  |  |  | 
12 | CNC(=O)c1ccc(OC)c(NCC#Cc2nn3c(N[C@@H]4CCN(C)C[C@@H]4F)ccnc3c2SC(F)(F)F)c1 [Example 216, 3-{[3-(7-{[(3S,4R)-3-fluoro-1-methylpiperidin-4-yl]amino}-3-[(trifluoromethyl)sulfanyl]pyrazolo[1,5-a]pyrimidin-2-yl)prop-2-yn-1-yl]amino}-4-methoxy-N-methylbenzamide] | 7.00 to 8.00 | 5.52 to 5.82 | 5.52 to 5.82 | > 5.30 | < 70% | > 3 µM |  |  |  |  |  | 
13 | COc1ccc(-c2ncc[nH]2)cc1NCC#Cc1nc2c(N[C@@H]3CCN(C)C[C@@H]3F)cccn2c1SC(F)(F)F [Example 220] | > 8.00 | > 6.12 | > 6.12 | > 5.30 | 70 to 80% | < 0.75 µM |  |  |  |  |  | 
14 | COc1cc(C(=O)NCCN(C)C)ccc1NCC#Cc1nc2c(N[C@@H]3CCOC[C@@H]3F)cccn2c1SC(F)(F)F [Example 221] | > 8.00 | > 6.12 | > 6.12 | > 5.30 | 70 to 80% | < 0.75 µM |  |  |  |  |  | 
15 | CNC(=O)c1ccc(C#N)c(NCC#Cc2nc3c(N[C@@H]4CCN(C)C[C@@H]4F)cccn3c2SC(F)(F)F)c1 [Example 224] |  |  |  |  |  |  | > 8.00 | > 6.12 | > 6.12 | ≤ 5.00 | < 0.75 µM | > 90%
16 | CNC(=O)c1ccc(NCC#Cc2nc3c(N[C@@H]4CCOC[C@@H]4F)cccn3c2SC(F)(F)F)c(OCCN(C)C)c1 [Example 226] |  |  |  |  |  |  | > 8.00 | 5.82 to 6.12 | 5.82 to 6.12 | 5.10 to 5.30 | 0.75 to 1.5 µM | 70 to 80%
17 | COc1ccc(C(=O)NCC2CN(C)C2)cc1NCC#Cc1nc2c(N[C@@H]3CCOC[C@@H]3F)cccn2c1SC(F)(F)F [Example 228] |  |  |  |  |  |  | > 8.00 | > 6.12 | < 5.52 | ≤ 5.00 | > 3 µM | < 70%
18 | CNC(=O)c1ccc(NCC#Cc2nc3c(N[C@@H]4CCS(=O)(=O)C4)cccn3c2SC(F)(F)F)c(OC)c1 [Example 230] |  |  |  |  |  |  | 7.00 to 8.00 | 5.52 to 5.82 | 5.52 to 5.82 | ≤ 5.00 | 1.5 to 3 µM | 80 to 90%
19 | COc1ccc(C(N)=O)cc1NCC#Cc1nn2c(N[C@@H]3CCN(C)C[C@@H]3F)cccc2c1SC(F)(F)F [Example 232] |  |  |  |  |  |  | > 8.00 | > 6.12 | > 6.12 | ≤ 5.00 | < 0.75 µM | 80 to 90%
